US20070208087A1, “Compounds, compositions and methods for the treatment of inflammatory diseases” (priority 2001, published 2007)
Values joined by “and” are separate entries in the source; they are usually repeats but may differ in a detail not shown here. Identical values can stand only once. Like-named read-outs stand apart in the source and are kept apart here.

Key:
[1] = tested on: EOC 13.31 microglia cells; assay: NO release inhibition in LPS/IFNγ stimulated microglia, concurrent treatment, Griess reaction at 24 hours (Example 6); type: cell-based; details: for NO release, Avg / inhibition at 50 µM: 24 hours; for inhibition at 50 µM: Microglia
How it was run: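 Confluent EOC 13.31 microglia were given 50 μM compound together with 1 pg/ml LPS plus 1 ng/ml IFNγ, or without stimulation. NO release was quantified spectrophotometrically by Griess reaction 24 hours later.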

Microglial cells = assay: Dose response inhibition of NO release from microglia, 0.75-200 μM (Example 8); type: cell-based
How it was run: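 Microglia plated at 1×10^5 cells/ml, stimulated with LPS/IFNγ and treated at 0.75, 1.56, 3.125, 6.25, 12.5, 25, 50, 100 and 200 μM. NO release measured after 48 hours by Griess reaction.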

[2] = dose 0.75 μM, 48 hours, single replicates
[3] = dose 1.56 μM, 48 hours, single replicates
[4] = dose 3.125 μM, 48 hours, single replicates
[5] = dose 6.25 μM, 48 hours, single replicates
[6] = dose 12.5 μM, 48 hours, single replicates
[7] = dose 25 μM, 48 hours, single replicates
[8] = dose 50 μM, 48 hours, single replicates
[9] = dose 100 μM, 48 hours, single replicates

Structure (SMILES): O=C(N[C@@H]1CCCC[C@H]1NC(=O)c1ccc(O)c(O)c1)c1ccc(O)c(O)c1 (relative stereo) [Compound 26, N,N′-bis(3,4-dihydroxybenzoyl)-trans-1,2-diaminocyclohexane]
- inhibition of NO release, in words ([1]; 50 μM, LPS/IFNγ stimulated microglial cells): very effective inhibitors of NO release
- NO release, Avg ([1]; Compound + LPS/IFNγ, 50 μM): 14.8384 µM
- NO release, Avg ([1]; Compound Only (without LPS/IFNγ), 50 μM): 0.0000 µM
- inhibition at 50 µM ([1]; Compound + LPS/IFNγ, read-out: % inhibition of NO release): 20.3%
- inhibition at 50 µM ([1]; Table 2 summary, LPS/IFNγ, read-out: % Inhibition (summary of inhibition of NO release)): 20.3%
- inhibition at 0.75 µM (Microglial cells; Microglia, 48 h, dose 0.75 μM): -1.78%
- inhibition at 1.56 µM (Microglial cells; Microglia, 48 h, dose 1.56 μM): 6%
- inhibition at 3.125 µM (Microglial cells; Microglia, 48 h, dose 3.125 μM): 5.78%
- inhibition at 6.25 µM (Microglial cells; Microglia, 48 h, dose 6.25 μM, 48 hours, read-out: Avg % Inhibition): 0.428%
- inhibition at 12.5 µM (Microglial cells; Microglia, 48 h, dose 12.5 μM, 48 hours, read-out: Avg % Inhibition): 10.1%
- inhibition at 12.5 µM (Microglial cells; Microglia, 48 h, dose 12.5 μM, 48 hours, single replicates, read-out: % inhibition): 10.1%
- inhibition at 25 µM (Microglial cells; Microglia, 48 h, dose 25 μM, 48 hours, read-out: Avg % Inhibition): 10.1%
- inhibition at 25 µM (Microglial cells; Microglia, 48 h, dose 25 μM, 48 hours, single replicates, read-out: % inhibition): 13.3%
- inhibition at 50 µM (Microglial cells; Microglia, 48 h, dose 50 μM, 48 hours, read-out: Avg % Inhibition): 19.7%
- inhibition at 50 µM (Microglial cells; Microglia, 48 h, dose 50 μM, 48 hours, single replicates, read-out: % inhibition): 19.7%
- inhibition at 100 µM (Microglial cells; Microglia, 48 h, dose 100 μM, 48 hours, read-out: Avg % Inhibition): 23.6%
- inhibition at 200 µM (Microglial cells; Microglia, 48 h, 48 hours, read-out: Avg % Inhibition): 44.5%
- inhibition at 200 µM (Microglial cells; Microglia, 48 h, 48 hours, single replicates, read-out: % inhibition): 46%
- μM NO release Avg (Microglial cells; dose 0.75 μM, 48 hours): 24.756 µM
- % inhibition (Microglial cells; [2]): 1.07% and −4.91% and −1.50%
- OD values (printed under head μM NO release) (Microglial cells; [2]): 0.21 and 0.206 and 0.215
- μM NO release (Microglial cells; [2]): 24.688 µM and 24.063 µM and 25.517 µM
- μM NO release Avg (Microglial cells; dose 1.56 μM, 48 hours): 22.865 µM
- % inhibition (Microglial cells; [3]): 9.42% and 2.36% and 6.21%
- OD values (printed under head μM NO release) (Microglial cells; [3]): 0.198 and 0.193 and 0.204
- μM NO release (Microglial cells; [3]): 22.813 µM and 22.031 µM and 23.750 µM
- μM NO release Avg (Microglial cells; dose 3.125 μM, 48 hours): 22.917 µM
- % inhibition (Microglial cells; [4]): 8.14% and 2.36%
- OD values (printed under head μM NO release) (Microglial cells; [4]): 0.197 and 0.195 and 0.204
- μM NO release (Microglial cells; [4]): 22.656 µM and 22.344 µM and 23.750 µM
- μM NO release Avg (Microglial cells; dose 6.25 μM, 48 hours): 24.219 µM
- % inhibition (Microglial cells; [5]): 3.64% and −2.14% and −0.21%
- OD values (printed under head μM NO release) (Microglial cells; [5]): 0.208 and 0.202 and 0.211
- μM NO release (Microglial cells; [5]): 24.375 µM and 23.438 µM and 24.844 µM
- μM NO release Avg (Microglial cells; dose 12.5 μM, 48 hours): 21.875 µM
- OD values (printed under head μM NO release) (Microglial cells; [6]): 0.192
- μM NO release (Microglial cells; [6]): 21.875 µM
- μM NO release Avg (Microglial cells; dose 25 μM, 48 hours): 21.875 µM
- OD values (printed under head μM NO release) (Microglial cells; [7]): 0.197 and 0.187 and 0.192
- μM NO release (Microglial cells; [7]): 22.656 µM and 21.094 µM and 21.875 µM
- μM NO release Avg (Microglial cells; dose 50 μM, 48 hours): 19.531 µM
- % inhibition (Microglial cells; [8]): 18.42% and 20.99%
- OD values (printed under head μM NO release) (Microglial cells; [8]): 0.175 and 0.177 and 0.179
- μM NO release (Microglial cells; [8]): 19.219 µM and 19.531 µM and 19.844 µM
- μM NO release Avg (Microglial cells; dose 100 μM, 48 hours): 18.594 µM
- % inhibition (Microglial cells; [9]): 17.13% and 19.06% and 34.48%
- OD values (printed under head μM NO release) (Microglial cells; [9]): 0.154 and 0.181 and 0.178
